One series deals with Influenza A virus. The note with it: in vitro; cited from earlier work.
A short description of another series: in vitro. The note with it: cat.
The subject of the next series is FIPV 3CL^pro. The note with it: cited from earlier work.
Series [1] relates to FIPV. Put plainly: Post-viral entry assay, viral load by RT-qPCR. In kind it is cell-based, feline infectious peritonitis virus. The note with it: Alphacoronavirus 1, read-out: inhibition of viral copy numbers. The method, then:
(§1) Crandell–Rees feline kidney cells were seeded into a 96-well plate at 1.8 × 10^4 cells/well and cultured in MEM containing 7% FBS. Pre-compound, attachment, penetration, post-viral entry, and virucidal assays were performed based on each step of viral infection. […] For the antiviral activity assay, FIPV was used at 50 TCID50/well in all experiments. Crandell–Rees feline kidney cells were inoculated with FIPV and treated with 0.1% DMSO as vehicle control. GC376 (TargetMol®, Wellesley Hills, MA, USA) was used as the FIPV-specific drug control. Three experiments were performed in duplicate wells for each compound.
To determine whether the compounds could inhibit viral replication and translation in the host cells after infection, CRFK cells were inoculated with FIPV at 37°C for 2 h for viral adsorption.
Intracellular and extracellular FIPV from infected CRFK cells was determined using RT-qPCR, as described. […] A standard curve of viral copy numbers was generated from the plasmid containing the FIPV 3′UTR sequence by 10-fold serially diluting the plasmid from […] plasmid molecules/μL and using it for viral load quantification. Quantitative polymerase chain reaction was performed from two biological replicates and three independent experiments were performed.

Series [2] relates to FIPV. Description: Cotreatment (virucidal) assay, IPMA. The note with it: Alphacoronavirus 1, FIPV and compound coincubated with cells at 37°C for 2 h, 24 h. In kind it is cell-based, feline infectious peritonitis virus.
In series [3] the test system is FIPV. Put plainly: Virucidal effect at different time points, TCID50 titration. In kind it is cell-based, feline infectious peritonitis virus. The note with it: 75 μM, direct incubation with FIPV at 37°C, compared with untreated control. The method, then: Feline infectious peritonitis virus inoculum at 50 TCID50/mL was directly incubated at the maximum concentrations of the compounds that were non-cytotoxic at 37°C in a 1.5 mL microcentrifuge tube for 0, 15, 30, 60, and 120 min. After the indicated incubation, the mixtures of virus and compounds were immediately subjected to viral titration according to Reed and Muench’s method. Viral titers in compound-treated wells were compared with the untreated control.

For series [4], the system named is FIPV. Description: Time-of-addition (ToA) assay, RT-qPCR. In kind it is cell-based, feline infectious peritonitis virus.
The next series relates to SARS-CoV-2. The note with it: in vitro, infected Vero cells; cited from earlier work.
Series [5] concerns Foot-and-mouth disease virus. The note with it: in vitro, post-viral entry; cited from earlier work.
For the next series, the system named is FMDV 3C^pro. The note with it: cited from earlier work.
Series [6] has as its system Foot-and-mouth disease virus. The note with it: virus and compound cotreated before incubating with cells; read-out: EC50 (virucidal, cotreatment); cited from earlier work.
The test system of series [7] is CRFK cells. Put plainly: Cell cytotoxicity and cell viability (MTS assay). The note with it: 24 h.
For series [8], the system named is FIPV. Put plainly: Post-viral entry assay, FIPV-infected cells by IPMA. The note with it: for selectivity ratio at 24 h: cat.
The subject of series [9] is FIPV. Description: Pre-compound assay. In kind it is cell-based, feline infectious peritonitis virus. The note with it: cells pretreated 2 h, then FIPV 2 h, 24-HPI, crystal violet and IPMA.
Series [10] has as its system FIPV. Description: Attachment assay. In kind it is cell-based, feline infectious peritonitis virus. The note with it: co-adsorbed at 4°C for 1 h, 24-HPI. Here is the method:
as §1
To determine whether the compounds could interfere with virus binding to the host cells, CRFK cells in a 96-well plate were prechilled at 4°C for 1 h, and cotreated with the FIPV inoculum and the diluted compounds or controls at 4°C for 1 h to allow virus binding, but not entry to the host cells.
For initial screening, FIPV infection was determined using crystal violet staining for all antiviral assays. Briefly, the supernatants were removed from the compound-treated and FIPV-infected CRFK and control cells, and the cells were fixed with cold methanol at room temperature (25°C) for 30 min. […] Five to ten images of positive FIPV-infected cells were recorded at a magnification of 100× using a phase-contrast inverted microscope (Olympus IX73). […]

In series [11] the test system is FIPV. Put plainly: Penetration assay. The note with it: FIPV bound at 4°C 1 h, compound added at 37°C, 24 h. In kind it is cell-based, feline infectious peritonitis virus.
Series [12] has as its system SARS-CoV 3a channel protein. The note with it: in vitro; cited from earlier work.
The subject of a further series is Enterovirus A71. Set-up: method as in PMID 19537794. The note with it: in vitro, at 10 µM; cited from earlier work.
The test system of series [13] is Human immunodeficiency virus reverse transcriptase. Also on record: method as in PMID 21730371. The note with it: in vitro; cited from earlier work.
Another series relates to SARS-CoV-2 RdRp. The note with it: in vitro; cited from earlier work.
Series [14] has as its system CRFK cells. The note with it: cat, 24 h.
In series [15] the test system is Coxsackievirus B3. Set-up: method as in PMID 24963331. The note with it: in vitro; cited from earlier work.
The subject of series [16] is Herpes simplex virus type 1. The note with it: in vitro; cited from earlier work.
Series [17] concerns Coxsackievirus B3. Also on record: method as in PMID 24963331. The note with it: cited from earlier work.
In another series the test system is Zika virus. Set-up: method as in PMID 27344138. The note with it: in vitro; cited from earlier work.
Another series relates to Hepatitis B virus. The note with it: in vitro; cited from earlier work.
The test system of a further series is SARS-CoV-2 3CL^pro. Set-up: method as in PMID 32963564. The note with it: in vitro; cited from earlier work.
Where [18] appears, read: post-viral entry, FIPV 50 TCID50/well in CRFK cells, 24-HPI, IPMA.

≈ marks a conversion by molar mass, not a printed value. Read-outs that look alike come from different tables or passages of the source.

Turning to `O=c1cc(-c2ccc(O)cc2)oc2cc(O)cc(O)c12` [Apigenin], in the series on Influenza A virus, the EC50 was 5 to 20 µM. The CC50 at 24 h in “in vitro” (CC50) was 22.2 µM.

Consider `COc1cc(O)c2c(=O)cc(-c3ccc(O)c(O)c3)oc2c1` [7-methylluteolin], for which the IC50 with FIPV 3CL^pro was 28.5 ± 4.2 µM.

Regarding `COc1ccc(-c2cc(=O)c3c(O)cc(O)c(-c4cc(-c5cc(=O)c6c(O)cc(O)cc6o5)ccc4OC)c3o2)cc1` [Isoginkgetin], the inhibition at 10 µM with FIPV [1] was above 90%. In addition, the concentration giving a half-maximal response (EC50) in the series on FIPV [2] was 40.6 ± 1.5 µM; with SARS-CoV-2, 22.8 µM; in series [5] it was 1.93 ± 0.21 µM; in series [6], 2.01 ± 0.07 µM; in the series on FIPV [8] (Alphacoronavirus 1, CRFK), 4.77 ± 0.09 µM. In addition, the “decrease of viral titer” value in the series on FIPV [3] (60 min) turned out to be 2 log10 TCID50/mL; in the series with FIPV [3] (120 min), 1.89 log10 TCID50/mL. Also, the “time of addition of maximal efficiency” value with FIPV [4] (28.82 μM, harvested at 10-HPI, RT-qPCR) is listed as 2–4 HPI. Also, in the series with FIPV [4] (added at 0-HPI, 28.82 μM, RT-qPCR at 10-HPI), the “effect on FIPV” value was “major inhibitory effect”. The “time of addition at which FIPV replication is inhibited” value in the series with FIPV [4] (compound at EC90, harvested at 10-HPI, RT-qPCR) is listed as 0–6 HPI. In the series on FMDV 3C^pro, the IC50 is 39 µM. This compound also displayed a CC50 at 24 h in “in vitro” of 199.4 ± 0.33 µM. In the series “in vitro”, this compound had a viability at 24 h, 75 µM of at least 90%. This compound also came in with a CC10 with CRFK cells [7] of 77.43 ± 2.52 µM. For the same compound, it took 28.8 ± 1.46 µM to reach the 90% level in the series with FIPV [8] (Alphacoronavirus 1, CRFK) (EC90). The selectivity ratio at 24 h with FIPV [8] (Selective index CC50/EC50, post-viral entry, CRFK cells) amounted to 41.8.

`CC(C)C[C@H](NC(=O)OCc1ccccc1)C(=O)N[C@@H](C[C@@H]1CCNC1=O)C(O)S(=O)(=O)[O-].[Na+]` (stereo partly drawn) [GC376]: the “cell protection (prophylactic) effect” value with FIPV [9] was “did not possess the prophylactic and virus attachment effects”. Further, the “effect on FIPV binding (attachment)” value with FIPV [10] is “did not possess the prophylactic and virus attachment effects”. Further, the “effect on FIPV penetration” value in the series with FIPV [11] is listed as “inhibited FIPV replication at high concentrations of up to 50 μM”.

For `O=c1c(-c2ccc(O)cc2)coc2c([C@@H]3O[C@H](CO)[C@@H](O)[C@H](O)[C@H]3O)c(O)ccc12` [Puerarin], the concentration for a half-maximal effect (EC50) in the series on Influenza A virus is 52.1 µM. In the series “in vitro” (CC50), this compound displayed a CC50 at 24 h of 195 µM.

For `O=C(/C=C/c1ccc(O)cc1)OC[C@H]1O[C@@H](Oc2c(-c3ccc(O)cc3)oc3cc(O)cc(O)c3c2=O)[C@H](O)[C@@H](O)[C@@H]1O` [Tiliroside], in series [12], the IC50 is 20 µM. Further, the CC50 at 24 h in the series “in vitro” turned out to be 65.2 µM.

Regarding `O=C(O[C@@H]1Cc2c(O)cc(O)cc2O[C@H]1c1cc(O)c(O)c(O)c1)c1cc(O)c(O)c(O)c1` [Gallocatechin Gallate], the virus reduction with Enterovirus A71 is 56%. In series [13], the EC50 was 3.5 µM. The same compound had a CC50 at 24 h in “in vitro” above 200 µM.

Take `O=c1c(O)c(-c2ccc(O)c(O)c2)oc2cc(O)cc(O)c12` [Quercetin]: the 50% inhibitory concentration (IC50) in the series on SARS-CoV-2 RdRp was 6.9 µM. In “in vitro”, this compound showed a CC50 at 24 h above 200 µM.

In the case of `COc1ccc([C@@H]2CC(=O)c3c(O)cc(O[C@@H]4O[C@H](CO[C@@H]5O[C@@H](C)[C@H](O)[C@@H](O)[C@H]5O)[C@@H](O)[C@H](O)[C@H]4O)cc3O2)cc1O` [Hesperidin], the viral titer reduction entry with Influenza A virus is on record as “Influenza A virus (in vitro: viral titer reduction at 3 log10 TCID50/0.1 mL)”.

For `C[C@@H]1O[C@@H](OC[C@H]2O[C@@H](Oc3c(-c4ccc(O)c(O)c4)oc4cc(O)cc(O)c4c3=O)[C@H](O)[C@@H](O)[C@@H]2O)[C@H](O)[C@H](O)[C@H]1O` [Rutin], the CC50 at 24 h in the series “in vitro” (CC50) was above 200 µM.

`O=c1cc(-c2ccc(O)c(-c3c(O)cc(O)c4c(=O)cc(-c5ccc(O)cc5)oc34)c2)oc2cc(O)cc(O)c12` [Amentoflavone] gave a CC10 in the series with CRFK cells [14] of 155.50 ± 2.19 µM. The EC50 in the series on Coxsackievirus B3 [15] is 25 µM; in series [16] it was 11.1 to 28.2 µM; in the series on FIPV [8] (Alphacoronavirus 1, CRFK), 144.1 ± 0.01 µM. Besides, the “IC50 (virucidal)” value with Coxsackievirus B3 [17] was 19 to 41 µg/mL. In the series “in vitro” (CC50), the CC50 at 24 h was found to be 197 ± 2.29 µM. The compound further came in with an EC90 in the series on FIPV [8] (Alphacoronavirus 1, CRFK) of 242.9 ± 2.4 µM. Also, in the series with FIPV [8], the selectivity ratio at 24 h is 1.37.

On to `O=C(O[C@@H]1Cc2c(O)cc(O)cc2O[C@@H]1c1cc(O)c(O)c(O)c1)c1cc(O)c(O)c(O)c1` [Epigallocatechin gallate], for which the EC50 in the series with Zika virus was 21.4 µM; in the series on Hepatitis B virus, below 10 µM; in the series with FIPV [8] (setting [18]) it was 79.07 ± 0.01 µM. For the same compound, the IC50 in the series with SARS-CoV-2 3CL^pro is reported as 7.58 µg/mL (≈ 16.5 µM). In the series on CRFK cells [7], this compound gave a CC10 of 84.98 ± 1.93 µM. The same compound returned a CC50 with CRFK cells [7] of 282.2 ± 0.12 µM. The “Selective index CC50/EC50” value in the series on FIPV [8] (post-viral entry, CRFK cells) is given as 3.57. It took 196.5 ± 1.96 µM to reach the 90% level in the series on FIPV [8] (setting [18]) (EC90).

As to Epicatechin-3-O-gallate, in series [16], the EC50 is 4 µM.

Values taken from paper PMC10082729, “First study on in vitro antiviral and virucidal effects of flavonoids against feline infectious peritonitis virus at the early stage of infection” (Veterinary World, 2023).
